From patent US20220015372A1, “BIOLOGICALS AND THEIR USE IN PLANTS” (PIONEER HI-BRED INTERNATIONAL, INC., priority 2018, published 2022)

Columns and labels:
[1] = test system: Fall Armyworm (FAW, Spodoptera frugiperda); experiment: Lepidoptera diet-based feeding assay, FAW; type: in vivo; settings: serial dilutions of Kings Medium fermentate (depsipeptide 55 ug/ml) in artificial diet
Description: (§1) Lepidopteran feeding assays (including FAW) were conducted on an artificial diet containing fermented broth in a 96 well plate set up. The broth was incorporated with multi-species Lepidopteran artificial diet (Southland Products Inc., Arkansas) in a ratio of 25 μl test sample and 35 μl of diet. Two to five neonate larvae were placed in each well to feed for 4 days. Results were expressed as positive for larvae reactions such as stunting and/or mortality. Results were expressed as negative if the larvae were similar to the negative control that is fed diet to which the above control broth only has been applied.

[2] = test system: European corn borer (ECB, Ostrinia nubilalis); experiment: Lepidoptera diet-based feeding assay, ECB; type: in vivo; settings: serial dilutions of Kings Medium fermentate (depsipeptide 55 ug/ml) in artificial diet
Description: as §1

[3] = test system: soybean looper (SBL, Pseudoplusia includens); experiment: Lepidoptera diet-based feeding assay, SBL; type: in vivo; settings: serial dilutions of Kings Medium fermentate (depsipeptide 55 ug/ml) in artificial diet
Description: as §1

[4] = test system: corn earworm (Hehcoverpa zea); experiment: Lepidoptera diet-based feeding assay, CEW; type: in vivo, Helicoverpa zea; settings: serial dilutions of Kings Medium fermentate (depsipeptide 55 ug/ml) in artificial diet
Description: as §1

[5] = test system: Western Corn Rootworm (WCRW, Diabrotica virgifera virgifera); experiment: Coleoptera diet based feeding assay, WCRW; type: in vivo; settings: serial dilutions of Kings Medium fermentate (depsipeptide 55 ug/ml) in artificial diet
Description: Western Corn Rootworm (WCRW, Diabrotica virgifera virgifera) bioassays were conducted in a 96 well plate format, mixing 10 μl of test sample with 50 μl molten modified Southern Corn Rootworm diet (Frontier Agricultural Sciences, diet F9800B). WCRW neonates were placed into each well before heat sealed with a Mylar film. Holes are punched in the film to allow air exchange. The assay was run four days at 25° C. in the dark. The plates were then scored for insect mortality and stunting of insect growth. The scores were noted as dead, severely stunted (little or no growth but alive), stunted (growth but not equivalent to controls) or no activity.

[6] = test system: beet armyworm (Spodoptera exigua; BAW); experiment: Medium-sized plant-based assay on corn, BAW; type: in vivo; parameters: key to insect live or dead: live=F; dead=K
Description: (§2) Broths A and B were tested against four insect species in medium insect test units; DBM, FAW, beet armyworm (Spodoptera exigua; BAW), and corn earworm (Helicoverpa zea; CEW). Test units were comprised of 70 cm^3 bases with 35 g of Woodstown Sandy Loam soil (Delmar, Del.) and mustard (Brassicae kaber; 6.5-7 cm), corn (Zea mays; 7-8 cm) or Bush bean (Phaseolus vulgaris; 6-7cm) as host plants for DBM, FAW and BAW, and CEW, respectively. Three concentrations of Broths A and B were tested: 0.25, 0.5 and 1×, with and without the surfactant X-77. Spinetoram was included as a positive control. Untreated controls were also included. Test units were sprayed with 1.2 mL of broth, in triplicate, and subsequently infested with approximately 15-20 stage 1 BAW or FAW larvae, or 30-40 neonate DBM or CEW. Units were kept in controlled conditions of 25° C./70% RH/16:8 h (L:D) photoperiod for six days and then scored. There are two scores given for each treatment, (1) plant damage rating from 0-10, with 0 being no damage and 10 being plant was completely consumed, and (2) insect live or dead (live=F; dead=K). The scores are averages of the three technical replicates. Any treatment with a plant damage score of 3 or less and an insect rating of K was considered to be active.

FAW = experiment: Medium-sized plant-based assay on corn, FAW; type: in vivo, Spodoptera frugiperda; parameters: key to insect live or dead: live=F; dead=K
Description: as §2

[7] = test system: corn earworm (Helicoverpa zea; CEW); experiment: Medium-sized plant-based assay on bush bean, CEW; type: in vivo; parameters: key to insect live or dead: live=F; dead=K
Description: as §2

[8] = 0.1 ppm, Table 3 assay without X-77, six days
[9] = 0.1 ppm, Table 4 assay with X-77, six days
[10] = 0.2 ppm, Table 3 assay without X-77, six days
[11] = 0.2 ppm, Table 4 assay with X-77, six days
[12] = 2 ppm, Table 3 assay without X-77, six days
[13] = 2 ppm, Table 4 assay with X-77, six days

FR901375 [depsipeptide]
11 ppm: minimal dose to achieve 100% mortality [4]
23 ppm: minimal dose to achieve 100% mortality [5]
1 ppm: minimal dose to achieve 100% mortality [3]
2 ppm: minimal dose to achieve 100% mortality [2]
2 pmm: minimal dose to achieve 100% mortality [1]

Spinetoram
7: plant damage rating from 0-10 [6, 8] | plant damage rating from 0-10 [6, 9]
F: insect live or dead [6, 8] | insect live or dead [6, 9] | insect live or dead [6, 10] | insect live or dead [6, 11] | insect live or dead [6, 13] | insect live or dead (FAW; [8]) | insect live or dead (FAW; [9])
4: plant damage rating from 0-10 [6, 10] | plant damage rating from 0-10 [6, 11] | plant damage rating from 0-10 [6, 13]
5: plant damage rating from 0-10 (FAW; [8]) | plant damage rating from 0-10 (FAW; [9])
0: plant damage rating from 0-10 [6, 12] | plant damage rating from 0-10 (FAW; [12]) | plant damage rating from 0-10 (FAW; [13]) | plant damage rating from 0-10 [7, 12] | plant damage rating from 0-10 [7, 13]
K: insect live or dead [6, 12] | insect live or dead (FAW; [10]) | insect live or dead (FAW; [11]) | insect live or dead (FAW; [12]) | insect live or dead (FAW; [13]) | insect live or dead [7, 8] | insect live or dead [7, 9] | insect live or dead [7, 10] | insect live or dead [7, 11] | insect live or dead [7, 12] | insect live or dead [7, 13]
1: plant damage rating from 0-10 (FAW; [10]) | plant damage rating from 0-10 (FAW; [11]) | plant damage rating from 0-10 [7, 8] | plant damage rating from 0-10 [7, 9] | plant damage rating from 0-10 [7, 10] | plant damage rating from 0-10 [7, 11]
